Assay results from article PMC10740499, “Benzodioxane–Benzamides as FtsZ Inhibitors: Effects of Linker’s Functionalization on Gram-Positive Antimicrobial Activity” (Antibiotics, 2023).
Values after ≈ are worked out from the molar mass of the structure shown. Read-outs that look alike come from different tables or passages of the source.

Tests used:
MDRSA 11.7 = experiment: MIC, broth dilution, MDRSA 11.7; type: cell-based, Staphylococcus aureus; conditions: MDRSA 11.7 clinical isolate
From the text: (§1) As described in our previous work, we evaluated all the compounds mentioned above on different S. aureus strains. We tested on both methicillin-sensitive S. aureus (MSSA, ATCC29213) and two clinical isolates of S. aureus showing multi-drug resistance (MDRSA). […] We analyzed the MICs and, if the antibacterial activity was promising, we also determined the percentage of cytotoxicity using the MTT assay on human MRC-5 cells and reported it as TD90. The results of antibacterial properties of all of the synthesized derivatives are shown in Table 1, and they are compared with their reference compounds FZ14, FZ88, and FZ100.
(§2) The detailed protocol is identical to what was previously reported. Briefly, the antimicrobial testing of compounds followed the Clinical and Laboratory Standards Institute and European Committee for Antimicrobial Susceptibility Testing guidelines. A bacterial suspension equivalent to 0.5 McFarland turbidity standard was diluted in cation-adjusted Mueller Hinton broth to prepare a fresh bacterial culture of 10^5 CFU/mL. Compounds dissolved in DMSO were combined with the bacteria and incubated for 20 h at 35 °C. MIC values were determined visually as the lowest compound dilution with no turbidity. MICs were determined against methicillin-sensitive and methicillin-resistant S. aureus strains (11.7 and 12.1). Every assay was performed in triplicate, and for each series of experiments, both positive (tetracycline) and negative (no compounds) controls were included.

[1] = system: methicillin-sensitive S. aureus (MSSA, ATCC29213); experiment: MIC, broth dilution, MSSA ATCC 29213; type: cell-based, Staphylococcus aureus
From the text: as §1
Gram-positive methicillin-sensitive Staphylococcus aureus (MSSA, ATCC 29213) was grown in Luria–Bertani broth (LB), as already described in our papers.
as §2

MDRSA 12.1 = experiment: MIC, broth dilution, MDRSA 12.1; type: cell-based, Staphylococcus aureus; conditions: MDRSA 12.1 clinical isolate
From the text: as §1, §2

human MRC-5 cells = experiment: MTT cytotoxicity assay; type: cell-based; conditions: MRC-5, MTT assay
From the text: as §1
Normal human lung fibroblasts (MRC-5) were grown in Dulbecco’s Modified Eagle’s medium (DMEM) supplemented with 10% heat-inactivated fetal calf serum (FCS), 100 U/mL penicillin, and […] streptomycin.
Compounds showing promising antibacterial activity were serially diluted in DMEM and tested for cytotoxicity on MRC-5 cells using the MTT assay (Sigma, St Louis, MO, USA), following the same protocol we previously reported.

[2] = system: B. subtilis strain WM5126; experiment: MIC from broth microdilution; type: cell-based, Bacillus subtilis
From the text: (§3) We further evaluated the most promising compounds on B. subtilis, a model Gram-positive species used previously in evaluating other benzamides, including by our research group. The B. subtilis strain WM5126 expresses a xylose-inducible GFP-tagged ZapA protein. […] We first tested the effects of the compounds on colony viability on solid medium (Figure 4). […] MIC values from microdilution experiments, shown in the right column in Figure 4, largely mirrored the spot viability data.
(§4) The B. subtilis strain used was WM5126 (JH642 amyE::Pxyl-gfp-zapA). For spot viability assays on plates, compounds were diluted from DMSO stocks into molten LB agar and mixed well before solidifying. To assess viability, cells were grown until the early log phase, and then 10-fold serial dilutions of the culture in LB were spotted onto LB agar plates containing the indicated final concentration of the compounds. The plates were incubated overnight at 30 °C and photographed. Microdilution assays to obtain MICs were performed essentially as described for E. coli.

[3] = system: B. subtilis strain WM5126; experiment: Spot viability assay on solid medium; type: cell-based, Bacillus subtilis; conditions: for colony viability on solid medium, in words: more potent compounds, Figure 4A; for growth on solid medium at 6 µg/mL: 6 µg/mL in LB agar; for concentration able to kill on solid medium: spot dilutions on LB agar
From the text: as §3, §4

[4] = system: methicillin-sensitive Staphylococcus aureus (MSSA); conditions: cited from earlier work
[5] = system: methicillin-resistant S. aureus (MRSA); conditions: cited from earlier work
E. coli FtsZ = system: E. coli FtsZ; parameters: method as in PMID 37634788; conditions: in words; cited from earlier work
[6] = system: FtsZ rings in live B. subtilis WM 5126 cells expressing GFP-ZapA; experiment: GFP-ZapA fluorescence microscopy of FtsZ assembly; type: cell-based, Bacillus subtilis; conditions: 0.3 µg/mL (0.8 µM), 90 min
Protocol: To test if the differential effects of FZ116 and FZ117 enantiomers could be detected as FtsZ assembly changes in B. subtilis cells, we visualized GFP-ZapA patterns after growth in inhibitory concentrations of FZ116 and FZ117 (0.3 µg/mL or 0.8 µM). Cells grown with no added compound grew as typical single bacilli and short chains, with well- defined Z rings clearly visible (Figure 5, left panel, single yellow arrows). […] This conversion of FtsZ rings into a speckle pattern was observed previously, both with FZ100 [14] and with the original benzamide derivatives.
For fluorescence microscopy, overnight cultures of WM5126 were grown at 33 °C (after 1:200 dilution overnight and addition of 0.1% xylose to induce expression of GFP-ZapA) for ~2 h until reaching an OD600 of ~0.2 and then treated with no drug or with compounds FZ116 or FZ117 diluted in water to a final concentration of 0.3 µg/mL (0.8 µM) from stock solutions of 30 mg/mL in DMSO. After the addition of the compounds, the cultures were grown for 90 min while shaking at 33 °C prior to spotting on a thin layer of 1% agarose in phosphate-buffered saline. Cells were imaged with an Olympus BX100 fitted with a 100 × Plan Apochromat objective (N.A. 1.4) and a GFP filter set (Chroma). Images were acquired with CellSens Dimension version 2 software (Evident Corporation, Tokyo, Japan).

[7] = Staphylococcus aureus, 20 h, MSSA ATCC 29213, 20 h at 35 °C, read-out: MIC
[8] = MSSA ATCC 29213, 20 h at 35 °C, read-out: MIC
[9] = as repeated in Table S1 beside the docking ranges, read-out: MIC vs S. aureus
[10] = Bacillus subtilis, value in brackets
[11] = Staphylococcus aureus, read-out: MIC vs S. aureus

SMILES	MIC (MDRSA 11.7; Staphylococcus aureus)	MIC [1, 7]	MIC (MDRSA 12.1; Staphylococcus aureus)	TD90 (human MRC-5 cells)	MIC ([2]; Bacillus subtilis)	MIC [2, 10]	MIC [1, 11]	further results
NC(=O)c1c(F)ccc(OCCC2COc3ccccc3O2)c1F (stereo not shown) [FZ88, reference compound]	14.9 µM (≈ 5 µg/mL)	14.9 µM (≈ 5 µg/mL)	14.9 µM (≈ 5 µg/mL)	226 µM				
CC(COc1ccc(F)c(C(N)=O)c1F)C1COc2cc3c(cc2O1)CCCC3 (stereo not drawn) [FZ119, Threo 3-(2-(5,6,7,8-Tetrahydro-1,4-naphthodioxan-2-yl)prop-1-yloxy)-2,6-difluorobenzamide]				247.9 µM				MIC (MDRSA 11.7): 9.9 µM (≈ 3.99 µg/mL); MIC (microdilution) [2]: < 0.24 µg/mL; MIC ([2]; value in brackets): < 0.6 µM; colony viability on solid medium, in words [3]: killed B. subtilis at the lowest doses; MIC [1, 8]: 9.9 µM (≈ 3.99 µg/mL); MIC [1, 9]: 9.9 µM (≈ 3.99 µg/mL); MIC (MDRSA 12.1): 9.9 µM (≈ 3.99 µg/mL)
NC(=O)c1c(F)ccc(OC[C@H](O)[C@H]2COc3ccccc3O2)c1F (relative stereo) [FZ112]	364 µM (≈ 128 µg/mL)	364 µM (≈ 128 µg/mL)	364 µM (≈ 128 µg/mL)		7.5 µg/mL	21 µM	364 µM (≈ 128 µg/mL)	growth on solid medium at 6 µg/mL [3]: still permitted growth
CC(COc1ccc(F)c(C(N)=O)c1F)C1COc2ccccc2O1 (stereo not shown) [FZ98, 3-(2-(1,4-benzodioxan-2-yl)-1-propyloxy)-2,6-difluorobenzamide]					15 µg/mL	42 µM		MIC (MDRSA 11.7): 91.6 µM (≈ 32 µg/mL); growth on solid medium at 6 µg/mL [3]: still permitted growth; MIC [1, 8]: 91.6 µM (≈ 32 µg/mL); MIC [1, 9]: 91.6 µM (≈ 32 µg/mL); MIC (MDRSA 12.1): 91.6 µM (≈ 32 µg/mL)
NC(=O)c1c(F)ccc(OCc2nc3cc(Cl)cnc3s2)c1F [PC190723]								MIC [4]: 1 µg/mL (≈ 2.81 µM); MIC [5]: 1 µg/mL (≈ 2.81 µM)
NC(=O)c1c(F)ccc(OC[C@H](O)[C@H]2COc3cc4c(cc3O2)CCCC4)c1F (relative stereo) [FZ116]	4.9 µM (≈ 1.99 µg/mL)	4.9 µM (≈ 1.99 µg/mL)	4.9 µM (≈ 1.99 µg/mL)	468.7 µM	< 0.24 µg/mL	< 0.6 µM	4.9 µM (≈ 1.99 µg/mL)	in vitro inhibition of E. coli FtsZ (E. coli FtsZ): very strong; FtsZ ring / GFP-ZapA pattern [6]: largely disrupted; colony viability on solid medium, in words [3]: killed B. subtilis at the lowest doses
C[C@H](Oc1ccc(F)c(C(N)=O)c1F)[C@H]1COc2ccccc2O1 (relative stereo) [FZ104, 3-[1-(1,4-benzodioxan-2yl)ethyl-1-oxy]-2,6-difluorobenzamide]	23.9 µM (≈ 8.01 µg/mL)	23.9 µM (≈ 8.01 µg/mL)	23.9 µM (≈ 8.01 µg/mL)		3.75 µg/mL	11 µM	23.9 µM (≈ 8.01 µg/mL)	concentration able to kill on solid medium ([3]; overnight 30 °C): 6 µg/mL; concentration able to kill on solid medium ([3]; value in brackets): ~ 20 µM
